The text below walks through data of article PMC5371824, “Phosphatidylinositol (4,5)-bisphosphate dynamically regulates the K2P background K^+ channel TASK-2” (Scientific Reports, 2017).

Where “and” joins values, the source holds several entries; their conditions need not be identical. Equal entries are not always repeated. Where two headings read alike, the source gives them in different places.

One data set has as its system KCNQ1/KCNE1. Set-up: method as in PMID 21576493. Particulars: read-out: EC50 for PI(4,5)P2 effect; cited from earlier work.
For data set [1], the target named is T1, TASK-2 (Mus musculus, UniProt F6V9U5).
T1 construct: expressed in transfected cells; host or cells: HEK-293
T1 sequence (F6V9U5 1-502): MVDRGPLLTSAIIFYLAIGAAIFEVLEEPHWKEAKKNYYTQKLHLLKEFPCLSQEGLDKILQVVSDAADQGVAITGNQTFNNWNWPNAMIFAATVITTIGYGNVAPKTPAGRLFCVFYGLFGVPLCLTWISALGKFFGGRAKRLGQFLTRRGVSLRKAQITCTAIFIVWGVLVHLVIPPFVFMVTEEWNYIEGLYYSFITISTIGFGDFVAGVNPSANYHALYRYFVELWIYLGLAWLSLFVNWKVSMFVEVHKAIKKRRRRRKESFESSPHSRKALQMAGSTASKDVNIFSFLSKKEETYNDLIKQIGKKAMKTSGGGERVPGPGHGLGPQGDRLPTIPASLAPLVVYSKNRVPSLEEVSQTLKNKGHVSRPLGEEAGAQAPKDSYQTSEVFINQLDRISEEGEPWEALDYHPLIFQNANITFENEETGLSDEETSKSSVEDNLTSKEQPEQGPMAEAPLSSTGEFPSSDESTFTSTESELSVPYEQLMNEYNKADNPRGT
The data set is described as follows: Excised inside-out patch recording from HEK-293 cells over-expressing TASK-2. The class given is biochemical. Particulars: for IC50: WT TASK-2, inside-out patch, mean ± SEM, read-out: IC50 for neomycin inhibition of TASK-2 current.

The target of data set [2] is T1, TASK-2. The data set is described as follows: Whole-cell patch-clamp of HEK-293 cells expressing TASK-2. Type of data set: cell-based. Particulars: whole-cell, 1 mM intracellular ATP, 0 mV. The protocol:
(§1) Mus musculus TASK-2 (GenBank accession No. AF319542) plasmid was that obtained from mouse kidney. The cDNAs was subcloned into the pCR3.1 vector. Mutations were made by site-directed mutagenesis into the pCR3.1 vector as previously described[69] and confirmed by sequencing. HEK-293 cells were cultured in Dulbecco’s modified Eagle’s medium (DMEM) and F12 Ham’s medium at a 1:1 ratio and supplemented with 10% fetal calf serum at 37 °C in 5% CO2. For electrophysiological experiments, transient transfections were performed by electroporation, using CD8 cotransfection to identify effectively transfected cells. […] Experiments were performed 4–8 h after electroporation. In experiments with the voltage-sensitive phosphatase TASK-2 or its mutants were co-electroporated with a pCR3.1-DrVSP-IRES-CD8 vector.
Transiently transfected HEK-293 cells in 35 mm Petri dishes were transferred to the stage of an inverted microscope for study. There they were continuously superfused with a bathing solution containing (in mM): 67.5 Na2SO4, 4 KCl, 1 K gluconate, 2 CaCl2, 1 MgCl2, 105 sucrose, and 10 Hepes/Tris (pH 7.5) (standard solution). A high K^+ solution was obtained by equimolar replacement of Na^+ by K^+. The pipette solution contained (mM) 8 KCl, 132 potassium gluconate, 1 MgCl2, 10 EGTA, 1 Na3ATP, 0.1 GTP, 10 HEPES/Tris, pH 7.4. Standard whole-cell, patch-clamp recordings were performed as described elsewhere. All our whole-cell experiments keep both intra- and extracellular chloride at 10 mM and although currents were measured at several potentials, data mostly reported are those obtained at 0 mV. Potentials were corrected for liquid junction shifts. Acquisition and analysis was done with Clampfit 9.0 (Axon Instruments, Foster City, CA, USA). Further data analysis was done using the curve fitting features of SigmaPlot v. 12 (Systat Software Inc., San Jose, CA, USA).
For orientation: Patch clamp records ionic current or voltage across a cell membrane.

In the next data set the test system is TASK-2-R438C. The data set is described as follows: Excised inside-out patch recording, TASK-2-R438C mutant. The class given is biochemical, Mus musculus. Set-up: key to Neomycin inhibition: ✓ under Neomycin inhibition indicates a significantly lower IC50 for inhibition by neomycin compared to control; — in all cases stands for no significant effect. As for the experimental part:
as §1
Recordings in the inside-out isolated patch configuration were performed in the gap-free mode at −60 mV. The inside aspect of the patch was bathed with a solution containing in mM: 10 KCl, 10 Glucose, 1 MgCl2, 10 EGTA, 1 Na3ATP, 0.1 GTP, 6.8 g/100 ml Sucrose, 10 Hepes/Tris, pH 7.4. The pipette contained in mM: 140 KCl, 10 Glucose, 6.8 g/100 ml Sucrose, 10 Hepes/Tris pH 7.4. For isolated patches, borosilicate capillaries (Harvard Apparatus GC150F-10 1.5 ODx0.86 ID) were fire polished to 4–5 MΩ and covered in beeswax. Acquisition was at 10 kHz with filter at 3 kHz (4-pole Bessel) and analysis was done with Clampfit 9.0 (Axon Instruments, Foster City, CA, USA). Traces shown are prints from crude Clampfit screen shots and quantification was done using the average currents were calculated at intervals using Clampfit after baseline adjustment.
Fig. S7. Concentration ependence for the inhibition of TASK-2 mutant R438C by
intracellular neomycin. Recording were obtained from excised inside-out patches of
membrane taken from a HEK-293 cells over-expressing TASK-2-R438C. The patches were
held at -60 mV in the presence of 1 mM intracellular ATP. Neomycin was increased
stepwise from 5 to 500 µM in the solution bathing the intracellular aspect of the membrane. […]

The test system of another data set is Kir4.1/Kir5.1. Set-up: method as in PMID 18690035. Particulars: read-out: neomycin IC50; cited from earlier work.

For the molecule `CCCCCCCC(=O)OC[C@H](COP(=O)(O)O[C@@H]1[C@H](O)[C@H](O)[C@@H](OP(=O)(O)O)[C@H](OP(=O)(O)O)[C@H]1O)OC(=O)CCCCCCC` [PI(4,5)P2, phosphatidylinositol 4,5-bisphosphate diC8], the EC50 in the data set on KCNQ1/KCNE1 is 5 µM; at TASK-2 [1] (diC8 PIP, inside-out patch, -60 mV, absence of ATP, from fits, means ± SEM, read-out: K0.5 (EC50) for activation of TASK-2 current), 34.9 µM and 35 µM. The “Effect of readmitted ATP relative to the maximal effect elicited by the PIP” value at TASK-2 [1] (1 mM ATP added after PIP, inside-out patches, Fig. S3) was 1.7 fold. Also, the “Stimulating effect on TASK-2-mediated currents after run-down” value on TASK-2 [1] (diC8 PIP added to inside-out excised patches, absence of ATP) is given as “Robust, but intermediate effects”. The “Maximal fold effect on TASK-2 current (normalised to current in absence of PIP)” value at TASK-2 [1] (diC8 PIP, inside-out patch, -60 mV, absence of ATP, from fits, means ± SEM) was found to be 3.7 ± 0.2 fold.

As for neomycin, the “Inhibition of TASK-2 activity by intracellular neomycin” value was “intermediate effect” at TASK-2 [2] (100 μM in pipette) and “near maximum effect” at TASK-2 [2] (200 μM in pipette). Further, the IC50 with TASK-2-R438C (inside-out patch, -60 mV, 1 mM intracellular ATP, neomycin 5 to 500 µM, mean ± SEM, n=4, read-out: IC50 for neomycin inhibition of TASK-2-R438C current) was 8.9 ± 1.5 µM; with Kir4.1/Kir5.1, 110 µM; on TASK-2 [1] (-60 mV, 1 mM intracellular ATP, neomycin 5 to 500 μM intracellular, n = 4) it was roughly 20 µM; at TASK-2 [1] (graded intracellular neomycin, four experiments, unit inferred) it was 23.4 ± 2.7 µM. Also, in the data set on TASK-2-R438C (mutation R438C, IC50 compared to WT TASK-2), the Neomycin inhibition entry was “✓”. Moreover, the “Inhibition of TASK-2 activity in excised inside-out patches” value on TASK-2 [1] (300 μM, -60 mV, 1 mM intracellular ATP) is “strongly inhibited”. Moreover, the “Inhibition of TASK-2 activity by polycation PI scavengers” value at TASK-2 [1] (in the presence of intracellular ATP) is reported as “inhibit TASK-2 activity”.

As usually defined, the EC50 is the concentration needed to bring the measured effect to its halfway point. As usually defined, the IC50 is the concentration needed to halve the response being measured.
